Test results as given in patent US20140322242A1, “MATERIALS AND METHODS FOR THE PREVENTION AND TREATMENT OF CANCER” (Icahn School of Medicine at Mount Sinai, priority 2010, published 2014).

Experiments:
[1] = test system: PC-3luc cells; experiment: Xenogeneic orthotopic PC-3luc prostate tumor model in nude mice (bioluminescence, immunofluorescence); type: in vivo, Balb/c nu/nu mice; conditions: for distant metastases / carbachol-induced lymph node invasion: antagonist in combination with carbachol
Procedure: The microenvironment of a developing tumor is important in cancer development and metastasis. A xenogeneic orthotopic model of prostate cancer was established to provide a minimally disruptive microenvironment for this cancer in live mice.
In vivo and ex vivo bioluminescence imaging was performed and analyzed using an IVIS imaging system 200 series (Xenogen, Caliper Life Sciences, Hopkinton, Mass.). Bioluminescent signal was induced by i.p. injection of D-luciferin (150 mg/kg in PBS) 8 minutes prior to in vivo imaging. For ex vivo imaging, D-luciferin (300 mg/kg) was injected 7 minutes prior to necropsy. Organs of interest were immersed in a solution of D-luciferin at 150 mg/ml.
(§1) Upon sacrifice, mouse prostate tissues were immersed in OCT medium (Tissue Teck®). Five-micrometer frozen sections were stained with hematoxylin-eosin (H&E). For immunofluorescence, unstained prostate sections were fixed with acetone or methanol. For staining of nerves, fixed sections were incubated in H2O2 to quench endogenous peroxidase and non-specific binding was blocked with goat serum in bovine serum albumin (BSA) solution and the avidin/biotin blocking kit (Vector Laboratories, Burlingame, Calif.). Sections were incubated with a rabbit anti-TH antibody (Millipore, Billerica, Mass.), or anti-VAChT antibody (Phoenix Pharmaceuticals, Inc., Burlingame, Calif.), or anti-NF-L antibody (Millipore), or anti-NF-H antibody (Abcam, Cambridge, Mass.) and then with a secondary biotinylated goat anti-rabbit antibody (Vector Laboratories). Signal was amplified using the Vectastain Elite ABC Kit (Vector Laboratories) and visualized using the Tyramide Signal Amplification kit for TRITC (PerkinElmer, Boston, Mass.).
(§2) For proliferative cell quantification, sections were incubated with a rabbit polyclonal anti-Ki67 (Abcam) and then Alexafluor 568-conjugated goat anti-rabbit antibody (Molecular Probes, Carlsbad, Calif.).
(§3) Human tumors were induced by orthotopic surgical implantations of 1×10^5 PC-3luc cells into six- to eight-week-old Balb/c nu/nu mice. Ten days after cell injection (day 0), the animals were randomized into the different groups and received the appropriate drugs, as indicated. 6OHDA or vehicle was injected at day 0 (100 mg/kg) and day 2 (250 mg/kg), and human recombinant G-CSF treatment was begun on day 4 (Amgen, 250 μg/kg/day, every 12 hours, 8 divided doses, i.p., in 5% dextrose). A second cycle was administered eight weeks after graft and animals were sacrificed three weeks after the last injection of G-CSF (i.e., 11 weeks after graft). In other experiments, 2×10^5 PC-3luc cells were orthotopically injected into nu/nu Adrβ2^tm1Bkk/J+/+ Adrβ3^tm1Lowl/J+/+, nu/nu Adrβ2^tm1Bkk/J−/−, nu/nu Adrβ3^tm1Lowl/J−/− and nu/nu Adrβ2^tm1Bkk/J−/− Adrβ3^tm1Lowl/J−/−. In selected experiments, 2×10^6 LNCaP-luc cells were injected in nu/nu Adrβ2^tm1Bkk/J+/+ Adrβ3^tm1Lowl/J+/+ and nu/nu Adrβ2^tm1Bkk/J−/− Adrβ3^tm1Lowl/J−/− mice. For the transgenic model, one-, two- or five-month-old c-Myc mice were injected with 6OHDA or surgically sympathectomized according to protocols described above and sacrificed 30 days later.
A second cycle was administered at week four and mice were sacrificed one week later (five weeks after graft). For cholinergic experiments using the nu/nu Chrm1^tm1Stl+/+ and nu/nu Chrm1^tm1Stl−/− animals, mice were sacrificed at week six post-graft. For the survival study, grafted mice were treated as described hereinabove from week 4, every two weeks for up to 25 weeks or until death. Disease progression was monitored by bioluminescence scanner. […] One week later, mice received a second round of treatment and were then sacrificed at month four.

[2] = test system: PC-3luc cells; experiment: PC-3luc cell proliferation / cytotoxicity in vitro (MTT); type: cell-based, human
Procedure: A cell proliferation assay was performed on human PC-3 prostate tumor cells after 96 hours of treatment by G-CSF at three different concentrations by comparison with human leukemic cells (HL-60 and U937). Cell proliferation was quantified by a cell viability assay using MTT (3-[4,5-dimethylthiazole-2-yl]-2,5-diphenyltetrazolium bromide (Sigma). The percentage of viable cells was calculated by comparing the optical density (OD) of the treated samples with those incubated with vehicle. Methods were carried out as described by Magnon, et al., Cancer Res, 65, 4353-61 (2005); incorporated herein by reference in its entirety.

[3] = test system: healthy prostate; experiment: Healthy (tumor-free) prostate: nerve density, epithelial cell proliferation, apoptosis, Chrm1 expression; type: in vivo, mouse; conditions: 6OHDA; TUNEL
Procedure: as §1, §2
For apoptotic cell quantification, prostate sections were fixed with 4% paraformaldehyde (PFA) and stained with the Mebstain Apoptosis Kit according to manufacturer's recommendations (MBL International, Woburn, Mass.). Basement membranes were stained with a rat polyclonal anti-α2laminin antibody (Abcam) followed by Alexafluor647-conjugated goat anti-rat antibody (Molecular Probes).
Gene expression levels were analyzed from RNA extracted, using the TRIzol solution (Invitrogen, Carlsbad, Calif.), from PC-3, DU145, LNCaP cell lines or prostates from Balb/c nu/nu mice by quantitative real-time PCR, as described previously (Mendez-Ferrer, Nature, 452:442-447 (2008)).

[4] = test system: prostate cancer in cMyc mice; experiment: cMyc transgenic mouse model of prostate cancer (mPIN, invasive cancer zones); type: in vivo
Procedure: To investigate further the activity of G-CSF on tumor development using a genetic mouse model, transgenic mice expressing human cMyc under the ARR2/probasin promoter expressed specifically in the prostate (hereafter cMyc mice) were evaluated. This transgenic model leads to the complete penetrance of mouse prostatic intraepithelial neoplasia (mPIN) from postnatal week 2, progressing to invasive adenocarcinomas between 3 to 6 months of age (FIG. 2m). […] The development of invasive cancer was associated with a broad infiltration of NF-L+ neo-fibers by comparison with control animals (FIG. 2o). Thus, the increased tumor/normal epithelial cell proliferation following G-CSF administration is associated with (i.e., is correlated to) the development of new nerve fibers in the primary tumor. Accordingly, a method of treating cancer in a subject such as a human patient or non-human animal (e.g., non-human mammal) comprises administering a prophylactically or therapeutically effective amount of an inhibitor of NF-L+ neo-fibers. In some embodiments, the method comprises administering a prophylactically or therapeutically effective amount of an inhibitor of G-CSF.
as §3
To ascertain the role of sympathetic innervation in tumor initiation using a genetic model, the effect of chemical or surgical sympathectomy on prostate cancer in cMyc mice was evaluated. For this study, transgenic cMyc mice expressing human c-Myc under the ARR2/probasin promoter expressed specifically in the prostate (AAR2/Pbsn-MYC) were used. This transgenic model leads to the complete penetrance of mouse prostatic intraepithelial neoplasia (mPIN) from postnatal week 2, progressing to invasive adenocarcinomas between 3 to 6 months of age (FIG. 6e). To this end, mice were chemically sympathectomized one month prior to histological analyses.
Disease progression was monitored by bioluminescence scanner. […] Mice were sacrificed at week 10.

[5] = Intravital microscopy hemodynamic measurements after carbachol; type: in vivo, mice
Procedure: Centerline red blood cell velocities were measured for 10 venules and 10 arterioles in two independent experiments. Wall shear rates (γ) were calculated based on Poiseuille's law for a Newtonian fluid, γ=2.12 (8Vmean)/Dv or Da, where Dv and Da are the venular or arterial diameters, the mean blood flow velocity (Vmean) was estimated as VRBC/1.6, and 2.12 is a median empirical mean, correction factor obtained from actual velocity profiles measured in microvessels in vivo. The blood flow rate was calculated from the formula: Vmean π D^2/4.

[6] = Echocardiography cardiac function after carbachol; type: in vivo; conditions: carbachol four consecutive days; n = 4 mice
Procedure: For imaging, animals were anesthetized with a mixture of O2/1.5% isoflurane and then positioned ventral side up on the platform of the imaging system. ECG signal and respiratory rate were captured through the electrode pads on the advanced physiological monitoring unit and transmitted to the Vevo system for monitoring. Cardiac examinations were performed in two dimensional images using the parasternal long axis (PLAX) view in B-Mode with a 1MS550D 40 MHz probe. Two cineloops (300 frames/cineloop) were recorded per animal and then analyzed on two diastoles and two systoles per animal. The endocardial stroke volume and endocardial diastolic volume were determined to calculate the ejection fraction.

[7] = one hour after carbachol injection, n = 10 vessels

For `NCCc1cc(O)c(O)cc1O` [6OHDA, 6-hydroxydopamine], the “TH+ neural fibers expressing NF-L (basal neural layer underneath prostate epithelium)” value ([1]; 6OHDA 100 and 250 mg/kg) was “specifically destroyed”, the “NF-L and NF-H positive fibers (parasympathetic) surrounding epithelial cells” value ([1]; 6OHDA treatment) was “without affecting” and the metastases ([1]; 6OHDA-induced sympathectomy) was “did not yield any detectable metastases”. The “development of the primary tumors” value ([1]; 6OHDA-induced sympathectomy, bioluminescence, TUNEL) was “dramatically prevented”, the “direct cytotoxicity on tumor cells in vitro” value ([2]; 6OHDA, cultured PC-3luc cells) was “no direct cytotoxicity” and the “apoptosis of epithelial cells in the healthy prostate” value [3] was “triggered in vivo apoptosis”. The “percentage of mPIN” value ([4]; denervation at 1 month of age) was “significantly reduced” and the “prevalence of mPIN and invasive cancer zones” value ([4]; sympathectomy two months or more after birth) was “not significantly altered”.

In the case of `C[N+](C)(C)CCOC(N)=O.[Cl-]` [carbachol, carbamoylcholine chloride], the vascular hemodynamics ([5]; carbachol-treated mice) is reported as “not altered”, the “Arterioles Blood Flow rate” value [5, 7] is reported as 1737 ± 148 nL/s and the “Arterioles Diameter” value [5, 7] is reported as 38.1 ±0.8 μm. For the same molecule, the “Arterioles RBC velocity” value [5, 7] was 2.47 ± 0.22 mm/sec, the “Arterioles Wall shear rate (g)” value [5, 7] was 698 ± 69 and the “Venules Blood Flow rate” value [5, 7] was 863 ± 128 nL/s. For the same molecule, the “Venules Diameter” value [5, 7] was 33.7 ± 1.3 μm, the “Venules RBC velocity” value [5, 7] was 1.48 ± 0.19 mm/sec and the “Venules Wall shear rate (g)” value [5, 7] was 469 ± 59. For the same molecule, the “invasion of inguinal lymph nodes” value ([1]; carbachol alone, week 5) was “significantly enhanced”, the “proliferation of PC-3luc cells orthotopically implanted into the prostate (Ki67)” value ([1]; carbachol injections) was “induced the proliferation” and the “tumor cell dissemination to distant organs compared to the control group” value ([1]; carbachol, ex vivo bioluminescence) was “about 6 fold”. For the same molecule, the “primary tumors (ex vivo bioluminescence)” value ([1]; carbachol, five weeks post-grafting) was “depopulated”, the “proliferation of PC-3luc cells in vitro” value ([2]; carbachol) was “did not induce any proliferation” and the Ejection fraction [6] was 65 ± 4%. For the same molecule, the “Endocardial volume, diastole” value [6] was 34.4 ± 7.9 µL, the “Endocardial volume, systole” value [6] was 11.7 ± 3.0 µL and the “incidence of mPIN” value ([4]; carbachol into three-month-old mice) was “significantly increased”. For the same molecule, the “transition of neoplastic lesions to invasive carcinoma” value ([4]; carbachol, four months of age) was “accelerated”.

With `CN1CCN(CC(=O)N2c3ccccc3C(=O)Nc3cccnc32)CC1` [pirenzepine] the distant metastases [1] was “inhibited”, the “carbachol-induced lymph node invasion” value ([1]; week 5) was “inhibited” and the “carbachol-induced tumor cell proliferation (Ki67)” value ([1]; pirenzepine with carbachol) was “specifically blocked”. For the same molecule, the carbachol-induced malignancy progression ([4]; pirenzepine with carbachol) was “completely inhibited”.

With `CN1[C@@H]2C[C@@H](OC(=O)[C@H](CO)c3ccccc3)C[C@H]1[C@@H]1O[C@@H]12` [scopolamine] the distant metastases [1] was “inhibited” and the “carbachol-induced lymph node invasion” value ([1]; week 5) was “inhibited”.
